# Reference: ChEMBL document CHEMBL5518181, “Studies of antibacterial activity (in vitro and in vivo) and mode of action for des-acyl tridecaptins (DATs)” (Eur J Med Chem, 2024)
# What was measured:
# Escherichia coli = experiment: Antibacterial activity against wild-type Escherichia coli ATCC 25922 assessed as inhibition of bacterial growth incubated for 18 hrs; format: functional; conditions: read-out: MIC100
# Klebsiella pneumoniae = experiment: Antibacterial activity against wild-type Klebsiella pneumoniae ATCC 13883 assessed as inhibition of bacterial growth incubated for 18 hrs; format: functional; conditions: read-out: MIC100
# [1] = Hemolytic activity in human red blood cells at 400 ug/ml incubated for 45 mins by spectrophotometric analysis relative to control; format: toxicity, cell-based, Erythrocyte; conditions: red blood cells (erythrocytes), at 400 µg/mL, read-out: Activity
# [2] = Cytotoxicity against human HepG2 cells incubated for 40 hrs by celltiter-glo luminescent cell viability assay; format: toxicity, cell-based
SMILES,MIC (Escherichia coli),MIC (Klebsiella pneumoniae),"hemolysis at 0.75 h, 400 ug/ml [1]",IC50 at 40 h [2]
CC[C@H](C)[C@@H](NC(=O)[C@@H](NC(=O)[C@H](CCC(=O)O)NC(=O)[C@H](Cc1ccccc1)NC(=O)[C@@H](CCN)NC(=O)[C@H](CCN)NC(=O)[C@H](CO)NC(=O)[C@@H](Cc1c[nH]c2ccccc12)NC(=O)[C@@H](CO)NC(=O)CNC(=O)[C@@H](CCN)NC(=O)[C@H](NC(=O)CN)C(C)C)C(C)C)C(=O)N[C@@H](C)C(=O)O,32 µg/mL,32 µg/mL,0%,> 70 µg/mL
CC[C@H](C)[C@@H](NC(=O)[C@@H](NC(=O)[C@H](CCC(=O)O)NC(=O)[C@H](Cc1ccccc1)NC(=O)[C@@H](CCN)NC(=O)[C@H](CCN)NC(=O)[C@H](CO)NC(=O)[C@@H](Cc1c[nH]c2ccccc12)NC(=O)[C@@H](C)NC(=O)CNC(=O)[C@@H](CCN)NC(=O)[C@H](NC(=O)[C@H](C)N)C(C)C)C(C)C)C(=O)N[C@@H](C)C(=O)O,16 µg/mL,32 µg/mL,0%,139 µg/mL
CC[C@H](C)[C@@H](NC(=O)[C@@H](NC(=O)[C@H](CCC(=O)O)NC(=O)[C@H](Cc1ccccc1)NC(=O)[C@@H](CCN)NC(=O)[C@H](C)NC(=O)[C@H](CO)NC(=O)[C@@H](Cc1c[nH]c2ccccc12)NC(=O)[C@@H](CO)NC(=O)CNC(=O)[C@@H](CCN)NC(=O)[C@H](N)C(C)C)C(C)C)C(=O)N[C@@H](C)C(=O)O,> 64 µg/mL,64 µg/mL,5.9%,126 µg/mL
CC[C@H](C)[C@@H](NC(=O)[C@@H](NC(=O)[C@H](CCC(=O)O)NC(=O)[C@H](Cc1ccccc1)NC(=O)[C@@H](CCN)NC(=O)[C@H](CCN)NC(=O)[C@H](CO)NC(=O)[C@@H](Cc1c[nH]c2ccccc12)NC(=O)[C@@H](CO)NC(=O)[C@H](C)NC(=O)[C@@H](CCN)NC(=O)[C@H](N)C(C)C)C(C)C)C(=O)N[C@@H](C)C(=O)O,> 64 µg/mL,64 µg/mL,0%,> 170 µg/mL
CC[C@H](C)[C@@H](NC(=O)[C@H](C)NC(=O)[C@H](CCC(=O)O)NC(=O)[C@H](Cc1ccccc1)NC(=O)[C@@H](CCN)NC(=O)[C@H](CCN)NC(=O)[C@H](CO)NC(=O)[C@@H](Cc1c[nH]c2ccccc12)NC(=O)[C@@H](CO)NC(=O)CNC(=O)[C@@H](CCN)NC(=O)[C@H](NC(=O)[C@H](C)N)C(C)C)C(=O)N[C@@H](C)C(=O)O,32 µg/mL,32 µg/mL,5.5%,51 µg/mL
CC[C@H](C)[C@@H](NC(=O)[C@@H](NC(=O)[C@H](CCC(=O)O)NC(=O)[C@H](Cc1ccccc1)NC(=O)[C@@H](CCN)NC(=O)[C@H](CCN)NC(=O)[C@H](CO)NC(=O)[C@@H](Cc1c[nH]c2ccccc12)NC(=O)[C@@H](CO)NC(=O)CNC(=O)[C@@H](CCN)NC(=O)[C@H](N)CCN)C(C)C)C(=O)N[C@@H](C)C(=O)O,> 64 µg/mL,> 64 µg/mL,0%,> 170 µg/mL
CC[C@H](C)[C@@H](NC(=O)[C@@H](NC(=O)[C@H](CCC(=O)O)NC(=O)[C@H](CC1CCCCC1)NC(=O)[C@@H](CCN)NC(=O)[C@H](CCN)NC(=O)[C@H](CO)NC(=O)[C@@H](Cc1c[nH]c2ccccc12)NC(=O)[C@@H](CO)NC(=O)CNC(=O)[C@@H](CCN)NC(=O)[C@H](NC(=O)[C@H](C)N)C(C)C)C(C)C)C(=O)N[C@@H](C)C(=O)O [listing 2 of 2 here],–,–,–,37 µg/mL
CC(C)[C@H](NC(=O)[C@H](CCC(=O)O)NC(=O)[C@H](Cc1ccccc1)NC(=O)[C@@H](CCN)NC(=O)[C@H](CCN)NC(=O)[C@H](CO)NC(=O)[C@@H](Cc1c[nH]c2ccccc12)NC(=O)[C@@H](CO)NC(=O)CNC(=O)[C@@H](CCN)NC(=O)[C@H](N)C(C)C)C(=O)N[C@@H](C(=O)N[C@@H](C)C(=O)O)C(C)(C)C,32 µg/mL,8 µg/mL,14.4%,–
CC[C@H](C)[C@@H](NC(=O)[C@H](CC1CCCCC1)NC(=O)[C@H](CCC(=O)O)NC(=O)[C@H](Cc1ccccc1)NC(=O)[C@@H](CCN)NC(=O)[C@H](CCN)NC(=O)[C@H](CO)NC(=O)[C@@H](Cc1c[nH]c2ccccc12)NC(=O)[C@@H](CO)NC(=O)CNC(=O)[C@@H](CCN)NC(=O)[C@H](NC(=O)[C@H](C)N)C(C)C)C(=O)N[C@@H](C)C(=O)O [listing 1 of 2 here],–,–,59%,9 µg/mL
CC[C@H](C)[C@@H](NC(=O)[C@@H](NC(=O)[C@H](CO)NC(=O)[C@H](Cc1ccccc1)NC(=O)[C@@H](CCN)NC(=O)[C@H](CCN)NC(=O)[C@H](CO)NC(=O)[C@@H](Cc1c[nH]c2ccccc12)NC(=O)[C@@H](CO)NC(=O)CNC(=O)[C@@H](CCN)NC(=O)[C@H](N)C(C)C)C(C)C)C(=O)N[C@@H](C)C(=O)O [listing 1 of 2 here],> 64 µg/mL,> 64 µg/mL,–,–
CC[C@H](C)[C@@H](NC(=O)[C@@H](NC(=O)[C@H](CO)NC(=O)[C@H](Cc1ccccc1)NC(=O)[C@@H](CCN)NC(=O)[C@H](CCN)NC(=O)[C@H](CO)NC(=O)[C@@H](Cc1c[nH]c2ccccc12)NC(=O)[C@@H](CO)NC(=O)CNC(=O)[C@@H](CCN)NC(=O)[C@H](N)C(C)C)C(C)C)C(=O)N[C@@H](C)C(=O)O [listing 2 of 2 here],–,–,0.4%,> 170 µg/mL

# Second part, led by results:
MIC (Escherichia coli),MIC (Klebsiella pneumoniae),SMILES,"hemolysis at 0.75 h, 400 ug/ml [1]",IC50 at 40 h [2]
> 64 µg/mL,> 64 µg/mL,CC[C@H](C)[C@@H](NC(=O)[C@@H](NC(=O)[C@H](CCC(=O)O)NC(=O)[C@H](Cc1ccccc1)NC(=O)[C@@H](CCN)NC(=O)[C@H](CN)NC(=O)[C@H](CO)NC(=O)[C@@H](Cc1c[nH]c2ccccc12)NC(=O)[C@@H](CO)NC(=O)CNC(=O)[C@@H](CCN)NC(=O)[C@H](NC(=O)[C@H](C)N)C(C)C)C(C)C)C(=O)N[C@@H](C)C(=O)O,0%,> 170 µg/mL
4 µg/mL,2 µg/mL,CC[C@H](C)[C@@H](NC(=O)[C@@H](NC(=O)[C@H](CCC(=O)O)NC(=O)[C@H](CC1CCCCC1)NC(=O)[C@@H](CCN)NC(=O)[C@H](CCN)NC(=O)[C@H](CO)NC(=O)[C@@H](Cc1c[nH]c2ccccc12)NC(=O)[C@@H](CO)NC(=O)CNC(=O)[C@@H](CCN)NC(=O)[C@H](NC(=O)[C@H](C)N)C(C)C)C(C)C)C(=O)N[C@@H](C)C(=O)O [listing 1 of 2 here],–,–
> 64 µg/mL,> 64 µg/mL,CC[C@H](C)[C@@H](NC(=O)[C@@H](NC(=O)[C@H](CCC(=O)O)NC(=O)[C@H](Cc1ccccc1)NC(=O)[C@@H](CN)NC(=O)[C@H](CCN)NC(=O)[C@H](CO)NC(=O)[C@@H](Cc1c[nH]c2ccccc12)NC(=O)[C@@H](CO)NC(=O)CNC(=O)[C@@H](CCN)NC(=O)[C@H](NC(=O)[C@H](C)N)C(C)C)C(C)C)C(=O)N[C@@H](C)C(=O)O,0%,> 170 µg/mL
> 64 µg/mL,> 64 µg/mL,CC[C@H](C)[C@@H](NC(=O)[C@@H](NC(=O)[C@H](CCC(=O)O)NC(=O)[C@H](Cc1ccccc1)NC(=O)[C@@H](CCN)NC(=O)[C@H](CCN)NC(=O)[C@H](CO)NC(=O)[C@@H](Cc1c[nH]c2ccccc12)NC(=O)[C@@H](CO)NC(=O)CNC(=O)[C@@H](CN)NC(=O)[C@H](NC(=O)[C@H](C)N)C(C)C)C(C)C)C(=O)N[C@@H](C)C(=O)O,0%,> 170 µg/mL
2 µg/mL,2 µg/mL,CC[C@H](C)[C@@H](NC(=O)[C@H](CC1CCCCC1)NC(=O)[C@H](CCC(=O)O)NC(=O)[C@H](Cc1ccccc1)NC(=O)[C@@H](CCN)NC(=O)[C@H](CCN)NC(=O)[C@H](CO)NC(=O)[C@@H](Cc1c[nH]c2ccccc12)NC(=O)[C@@H](CO)NC(=O)CNC(=O)[C@@H](CCN)NC(=O)[C@H](NC(=O)[C@H](C)N)C(C)C)C(=O)N[C@@H](C)C(=O)O [listing 2 of 2 here],–,–
